Assay results as given in ChEMBL document CHEMBL3045015, “Synthesis and physiological evaluation of new N-nitroso-2,6-dicarbethoxy-3,5-diaryltetrahydro-1,4-thiazine-1,1-dioxides” (Med Chem Res, 2012).

How the values were obtained:
Streptococcus pyogenes [1] = assay: Ratio of compound IZ to amikacin IZ for Streptococcus pyogenes MTCC 389 at 10 ug/ml by disk diffusion method; assay type: functional
Staphylococcus aureus [2] = assay: Ratio of compound IZ to amikacin IZ for Staphylococcus aureus MTCC 96 at 10 ug/ml by disk diffusion method; assay type: functional
Mus musculus = assay: Acute toxicity in Mus musculus (mouse) at 300 mg/kg; assay type: organism-based; design: dose 300 mg/kg; settings: in vivo
Candida albicans [3] = assay: Antifungal activity against Candida albicans MTCC 227 at 10 ug/ml by disk diffusion method; assay type: functional; settings: read-out: IZ
Pseudomonas aeruginosa [4] = assay: Antibacterial activity against Pseudomonas aeruginosa […] at 10 ug/ml by disk diffusion method; assay type: functional; settings: read-out: IZ
Escherichia coli [5] = assay: Antibacterial activity against Escherichia coli MTCC 722 at 10 ug/ml by disk diffusion method; assay type: functional; settings: read-out: IZ
Streptococcus pyogenes [6] = assay: Antibacterial activity against Streptococcus pyogenes MTCC 389 at 10 ug/ml by disk diffusion method; assay type: functional; settings: read-out: IZ
Staphylococcus aureus [7] = assay: Antibacterial activity against Staphylococcus aureus MTCC 96 at 10 ug/ml by disk diffusion method; assay type: functional; settings: read-out: IZ
Candida albicans [8] = assay: Ratio of compound IZ to nystatin IZ for Candida albicans MTCC 227 at 10 ug/ml by disk diffusion method; assay type: functional
Pseudomonas aeruginosa [9] = assay: Ratio of compound IZ to amikacin IZ for Pseudomonas aeruginosa […] at 10 ug/ml by disk diffusion method; assay type: functional
Escherichia coli [10] = assay: Ratio of compound IZ to amikacin IZ for Escherichia coli MTCC 722 at 10 ug/ml by disk diffusion method; assay type: functional

SMILES	Ratio (Streptococcus pyogenes [1])	Ratio (Staphylococcus aureus [2])	Activity (Mus musculus)	zone of inhibition at 10 µg/mL (Candida albicans [3])	zone of inhibition at 10 µg/mL (Pseudomonas aeruginosa [4])	zone of inhibition at 10 µg/mL (Escherichia coli [5])	zone of inhibition at 10 µg/mL (Streptococcus pyogenes [6])	zone of inhibition at 10 µg/mL (Staphylococcus aureus [7])	Ratio (Candida albicans [8])	Ratio (Pseudomonas aeruginosa [9])	Ratio (Escherichia coli [10])
CCOC(=O)C1C(c2ccc([N+](=O)[O-])cc2)N(N=O)C(c2ccc([N+](=O)[O-])cc2)C(C(=O)OCC)S1(=O)=O (stereo not drawn)	0.85	0.72	Non-toxic	12 mm	11 mm	17 mm	17 mm	13 mm	0.63	0.65	1
CCOC(=O)C1C(c2ccc(OC)cc2)N(N=O)C(c2ccc(OC)cc2)C(C(=O)OCC)S1(=O)=O (stereo not drawn)	0.65	0.61	Non-toxic	13 mm	18 mm	12 mm	13 mm	11 mm	0.69	1.11	0.71
CCOC(=O)C1C(c2ccc(C)cc2)N(N=O)C(c2ccc(C)cc2)C(C(=O)OCC)S1(=O)=O (stereo not drawn)	0.85	0.61	Non-toxic	11 mm	9 mm	17 mm	17 mm	11 mm	0.58	0.53	1
CCOC(=O)C1C(c2ccco2)N(N=O)C(c2ccco2)C(C(=O)OCC)S1(=O)=O (stereo not drawn)	0.55	0.67	Non-toxic	14 mm	10 mm	15 mm	11 mm	12 mm	0.74	0.59	0.88
CCOC(=O)C1C(c2cccs2)N(N=O)C(c2cccs2)C(C(=O)OCC)S1(=O)=O (stereo not drawn)	0.75	0.94	Non-toxic	20 mm	14 mm	13 mm	15 mm	17 mm	1.11	0.82	0.76
CCOC(=O)C1C(c2ccsc2)N(N=O)C(c2ccsc2)C(C(=O)OCC)S1(=O)=O (stereo not drawn)	0.45	0.83	Non-toxic	14 mm	13 mm	14 mm	9 mm	15 mm	0.74	0.76	0.82
CCOC(=O)C1C(c2ccccn2)N(N=O)C(c2ccccn2)C(C(=O)OCC)S1(=O)=O (stereo not drawn)	0.55	0.72	Non-toxic	12 mm	9 mm	10 mm	11 mm	13 mm	0.63	0.53	0.59
CCOC(=O)C1C(c2cccnc2)N(N=O)C(c2cccnc2)C(C(=O)OCC)S1(=O)=O (stereo not drawn)	0.4	0.78	Non-toxic	15 mm	11 mm	12 mm	8 mm	14 mm	0.79	0.65	0.71
CCOC(=O)C1C(c2ccc3c(c2)OCO3)N(N=O)C(c2ccc3c(c2)OCO3)C(C(=O)OCC)S1(=O)=O (stereo not drawn)	0.55	0.5	Non-toxic	10 mm	12 mm	8 mm	11 mm	9 mm	0.53	0.71	0.47
NCC[C@H](O)C(=O)N[C@@H]1C[C@H](N)[C@@H](O[C@H]2O[C@H](CN)[C@@H](O)[C@H](O)[C@H]2O)[C@H](O)[C@H]1O[C@H]1O[C@H](CO)[C@@H](O)[C@H](N)[C@H]1O [AMIKACIN]					17 mm	17 mm	20 mm	18 mm			
